# Columns and labels:
# [1] = LNP hydrodynamic diameter and polydispersity index by dynamic light scattering (DLS); type: physicochemical; settings: LNP: 47.5% ionizable lipid, 40% cholesterol, 2.5% PEG-2000 DMG, 10% DPSC, N/P 4-8
# Description: (§1) LNPs were prepared with 47.5% Ionizable Lipid (e.g., a compound provided herein): 40% cholesterol: 2.5% PEG-2000 DMG; and 10% DPSC and an N/P ratio range of 4-8. LNPs were formed by microfluidic mixing of the lipid and NA solutions using a Precision Nanosystems NanoAssemblr Spark or Benchtop series Instruments, according to the manufacturers protocol. A ratio of aqueous to organic solvent of approximately 2:1 or 3:1 was maintained during mixing using differential flow rates. After mixing, LNPs were collected, diluted in phosphate buffer saline (PBS) or Tris-buffered saline (TBS) (approximately 1:1 v/v). Further buffer exchange was conducted using dialysis in PBS or TBS at 4° C. for 4 to 24 hours against a 20 kDa filter. After this initial dialysis, each individual LNP preparation was characterized via dynamic light scattering (DLS) to measure the size (e.g., diameter) and polydispersity. LNPs falling within specific diameter and polydispersity ranges were pooled, and further dialyzed against PBS or TBS at 4° C. for 1 to 4 hours against a 100 kDa dialysis cassette. After the second dialysis, LNPs were sterile filtered using 0.22 μm filter and stored at 4° C. for further use.
# LNP hydrodynamic diameter and polydispersity index (PDI) were measured using high throughput dynamic light scattering (DLS) (Stunner, Unchained Labs). LNPs were diluted 1×TBS or PBS to an appropriate concentration and analyzed.
# [2] = LNP encapsulation efficiency by Ribogreen assay; type: physicochemical; settings: LNP: 47.5% ionizable lipid, 40% cholesterol, 2.5% PEG-2000 DMG, 10% DPSC, N/P 4-8
# Description: as §1
# RNA concentration and encapsulation efficiency were determined by Ribogreen assay (BioTek Synergy LX plate reader).
# Spleen = experiment: Barcoded pooled LNP biodistribution screen, fold above input (FAI) in spleen; type: in vivo; settings: pooled LNP IV tail vein, mice, 4 hours post-dose
# Description: (§2) Male and female mice aged approximately 8-12 weeks were used for studies described by the present Example. Each mouse was temporarily restrained and pooled LNP was administered IV via tail vein injection in up to five animals per experiment. Age-matched mice was also used to administer vehicle (1×TBS) via tail vein injection in up to three animals per experiment. Additional routes of administration can also be conducted including intracerebral ventricular (ICV), intracisterna manga (ICM), intrathecal (IT), intramuscular (IM), nebulization, intranasal (IN), subcutaneous (SC), intraarticular, and intradermal (ID). At 4 hours post-dose, tissues including liver, spleen, bone marrow, testes, gastrocnemius, quadricep, lung, heart, kidney, and pancreas may be collected for analysis.
# (§3) Liver, kidney, lung, and muscle (e.g. skeletal and cardiac) tissues may be mechanically, and then enzymatically digested using a mixture of proteinases, then passed through a 70 μm filter to generate single cell suspensions. Spleen tissues were mechanically digested to generate single cell suspensions. Tissues were treated with ACK buffer to lyse red blood cells, and then stained with fluorescently labeled antibodies for flow cytometry and fluorescence-activated cell sorting (FACS). Commercially available antibodies were used in the present example. Using a BD FACSMelody (Becton Dickinson), samples were acquired via flow cytometry to generate gates prior to sorting. […]
# (§4) To screen for preferential LNP delivery to a target tissues, the relative abundance of each barcode in one or more target tissues was measured and compared to the relative abundance of each barcode to its corresponding relative input abundance to determine fold above input (FAI) for each barcode. […]
# (§5) The FAI is the normalized relative abundance of a barcode in a selected sample as compared to its frequency in the input. […] The FAI value of the barcode was calculated by normalizing the relative abundance in the barcode sequence counts in the isolated samples to its relative abundance in the administration input. […]
# Liver = experiment: Barcoded pooled LNP biodistribution screen, fold above input (FAI) in liver; type: in vivo; settings: pooled LNP IV tail vein, mice, 4 hours post-dose
# Description: as §2, §3, §4, §5
# Lung = experiment: Barcoded pooled LNP biodistribution screen, fold above input (FAI) in lung; type: in vivo; settings: pooled LNP IV tail vein, mice, 4 hours post-dose
# Description: as §2
# Liver, kidney, lung, and muscle (e.g. skeletal and cardiac) tissues may be mechanically, and then enzymatically digested using a mixture of proteinases, then passed through a 70 μm filter to generate single cell suspensions. Spleen tissues were mechanically digested to generate single cell suspensions. Tissues were treated with ACK buffer to lyse red blood cells, and then stained with fluorescently labeled antibodies for flow cytometry and fluorescence-activated cell sorting (FACS). Commercially available antibodies were used in the present example. Using a BD FACSMelody (Becton Dickinson), samples were acquired via flow cytometry to generate gates prior to sorting. In general, the gating structure was size→singlet cells→live cells→cells of interest. T cells were defined as CD45+CD3+, monocytes are defined as CD45+CD11b+, and B cells are defined as CD45+CD19+. Endothelial cells were defined as CD31+, monocytes and Kupffer cells as CD45+CD11b+ and hepatocytes and myocytes were defined as CD31−/CD45− in the liver and muscle, respectively. Tissues from vehicle-dosed mice were used to set the gates for sorting.
# RNA from tissues were extracted using the Reliaprep RNA extraction kit, and libraries were prepared using the RNAseq kit, and sequenced on either a MiSeq or NextSeq500.
# as §4, §5
# [3] = screening experiment of Table 4
# [4] = screening experiment of Table 5
# [5] = screening experiment of Table 6
Mean Diameter (nm) [1] [nm],Mean PDI [1],Mean Encapsulation Efficiency (%) [2] [%],FAI (Spleen) (Spleen; [3]),FAI (Spleen) (Spleen; [4]),FAI (Spleen) (Spleen; [5]),FAI (Liver) (Liver; [3]),FAI (Liver) (Liver; [4]),FAI (Liver) (Liver; [5]),FAI (Lung) (Lung; screening experiment of Table 3),FAI (Lung) (Lung; [3]),FAI (Lung) (Lung; [4]),FAI (Lung) (Lung; [5]),SMILES
92.9,0.14,90.0,–,–,–,–,–,–,–,–,–,–,"CC/C=C\CCCCOC(CCC(=O)OCC(COC(=O)CCCCCCC/C=C\C/C=C\CCCCC)(COC(=O)CCCCCCC/C=C\C/C=C\CCCCC)COC(=O)OCC1CCCN(CC)C1)OCCCC/C=C\CC (stereo not shown) [Compound 7-68, 2-(((4,4-bis(((Z)-oct-5-en-1-yl)oxy)butanoyl)oxy)methyl)-2-(((((1-ethylpiperidin-3-yl)methoxy)carbonyl)oxy)methyl)propane-1,3-diyl (9Z,9′Z,12Z,12′Z)-bis(octadeca-9,12-dienoate)]"
86.1,0.15,88.5,–,–,–,–,–,–,–,–,–,–,"CC/C=C\CCCCOC(CCC(=O)OCC(COC(=O)CCCCCCC/C=C\C/C=C\CCCCC)(COC(=O)CCCCCCC/C=C\C/C=C\CCCCC)COC(=O)OCCCN(C)CC)OCCCC/C=C\CC [Compound 7-69, 2-(((4,4-bis(((Z)-oct-5-en-1-yl)oxy)butanoyl)oxy)methyl)-2-((((3-(ethyl(methyl)amino)propoxy)carbonyl)oxy)methyl)propane-1,3-diyl (9Z,9′Z,12Z,12′Z)-bis(octadeca-9,12-dienoate)]"
88.8,0.13,87.0,–,–,–,–,–,–,–,–,–,–,"CC/C=C\CCCCOC(CCC(=O)OCC(COC(=O)CCCCCCC/C=C\C/C=C\CCCCC)(COC(=O)CCCCCCC/C=C\C/C=C\CCCCC)COC(=O)NCCN1CCCC1)OCCCC/C=C\CC [Compound 7-70, 2-(((4,4-bis(((Z)-oct-5-en-1-yl)oxy)butanoyl)oxy)methyl)-2-((((2-(pyrrolidin-1-yl)ethyl)carbamoyl)oxy)methyl)propane-1,3-diyl (9Z,9′Z,12Z,12′Z)-bis(octadeca-9,12-dienoate)]"
–,–,–,1.57,0.61,1.50,1.00,0.30,0.73,0.50,0.86,1.51,1.68,CCCCC/C=C\C/C=C\CCCCCCCCC(CCCCCCCC/C=C\C/C=C\CCCCC)OC(=O)CCCN(C)C [MC3]

# From US20240358841A1, “NANOMATERIALS COMPRISING TETRAVALENT LIPID COMPOUNDS” (Beam Therapeutics Inc., priority 2021, published 2024)
